The source of these data is PubChem BioAssay AID328 (DTP/NCI, 2004).

The experiment has as its system BDF1 mice, P388 leukemia ip, median survival T/C. As to the kind of experiment: NCI In Vivo Anticancer Drug Screen. Data for tumor model P388 Leukemia (intraperitoneal) in B6D2F1 (BDF1) mice. The note with it: endpoint: median survival time, higher = longer survival. The method in brief:
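Read-out is survival of treated animals expressed relative to the vehicle group, as a T/C ratio.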

[1] abbreviates: dose: 12.5 mg/kg/injection, schedule: Q01DX009 (ip), vehicle: Klucel (hydroxypropylcellulose) (HPC).
The mark [2] stands for this setting: dose: 100.0 mg/kg/injection, schedule: Q04DX003 (ip), vehicle: Klucel (hydroxypropylcellulose) (HPC).
Where [3] appears, read: dose: 200.0 mg/kg/injection, schedule: Q04DX003 (ip), vehicle: Klucel (hydroxypropylcellulose) (HPC).

Each structure is given as a SMILES string. Where “and” joins values, the source holds several entries; their conditions need not be identical. Equal entries are not always repeated. Inconclusive results and toxic doses are left out.

For `C[S+](C)C`, the T/C was 100 % of control (dose: 12.0 mg/kg/injection, schedule: Q01DX001 (ip), vehicle: saline); 100 % of control (dose: 12.5 mg/kg/injection, schedule: Q04DX003 (ip), vehicle: saline); 100 % of control (dose: 25.0 mg/kg/injection, schedule: Q01DX001 (ip), vehicle: saline); 100 % of control (dose: 25.0 mg/kg/injection, schedule: Q04DX003 (ip), vehicle: saline); 100 % of control (dose: 50.0 mg/kg/injection, schedule: Q01DX001 (ip), vehicle: saline); 100 % of control (dose: 50.0 mg/kg/injection, schedule: Q04DX003 (ip), vehicle: saline). In addition, the T/C runs as follows: (dose: 100.0 mg/kg/injection, schedule: Q04DX003 (ip), vehicle: saline) 111 % of control; (dose: 200.0 mg/kg/injection, schedule: Q04DX003 (ip), vehicle: saline) 100 % of control; (dose: 400.0 mg/kg/injection, schedule: Q04DX003 (ip), vehicle: saline) 96 % of control.

Regarding `Brc1ccc(-c2csc(Nc3nc(-c4ccc(Br)cc4)cs3)n2)cc1`, the T/C (dose: 100.0 mg/kg/injection, schedule: Q04DX003 (ip), vehicle: saline with Tween-80) is 90 % of control; the T/C (dose: 200.0 mg/kg/injection, schedule: Q04DX003 (ip), vehicle: saline with Tween-80) was 90 % of control; the T/C (dose: 400.0 mg/kg/injection, schedule: Q04DX003 (ip), vehicle: saline with Tween-80) was 95 % of control.

Take `OC1CC2c3ccccc3C1c1cccc[n+]12` (configuration not stated): the T/C by setting is: under setting [1], 87 % of control and 91 % of control; (dose: 25.0 mg/kg/injection, schedule: Q01DX009 (ip), vehicle: Klucel (hydroxypropylcellulose) (HPC)) 104 % of control; (dose: 50.0 mg/kg/injection, schedule: Q01DX009 (ip), vehicle: Klucel (hydroxypropylcellulose) (HPC)) 91 % of control and 100 % of control; (dose: 56.25 mg/kg/injection, schedule: Q04DX003 (ip), vehicle: Klucel (hydroxypropylcellulose) (HPC)) 100 % of control; (dose: 75.0 mg/kg/injection, schedule: Q01DX009 (ip), vehicle: Klucel (hydroxypropylcellulose) (HPC)) 100 % of control; (dose: 112.5 mg/kg/injection, schedule: Q04DX003 (ip), vehicle: Klucel (hydroxypropylcellulose) (HPC)) 108 % of control.

Regarding `C/C(=C\c1ccc2c(c1)OCO2)[N+](=O)[O-]`, the T/C is, setting by setting: (dose: 85.0 mg/kg/injection, schedule: Q04DX003 (ip), vehicle: Klucel (hydroxypropylcellulose) (HPC)) 118 % of control; under setting [2], 110 % of control; (dose: 135.0 mg/kg/injection, schedule: Q04DX003 (ip), vehicle: Klucel (hydroxypropylcellulose) (HPC)) 109 % of control; under setting [3], 100 % of control and 109 % of control.

Take `CC1C=NNC1=O` (configuration not stated): the T/C is, setting by setting: (dose: 100.0 mg/kg/injection, schedule: Q01DX001 (ip), vehicle: saline with Tween-80) 95 % of control and 118 % of control; (dose: 175.0 mg/kg/injection, schedule: Q01DX001 (ip), vehicle: saline with Tween-80) 100 % of control; (dose: 176.0 mg/kg/injection, schedule: Q01DX009 (ip), vehicle: Klucel (hydroxypropylcellulose) (HPC)) 120 % of control; (dose: 200.0 mg/kg/injection, schedule: Q01DX001 (ip), vehicle: saline with Tween-80) 104 % of control; (dose: 265.0 mg/kg/injection, schedule: Q01DX001 (ip), vehicle: saline with Tween-80) 100 % of control; (dose: 400.0 mg/kg/injection, schedule: Q01DX001 (ip), vehicle: saline with Tween-80) 100 % of control. Moreover, the T/C (dose: 600.0 mg/kg/injection, schedule: Q01DX001 (ip), vehicle: saline with Tween-80) is 109 % of control.

As to `O=C1c2ccccc2C(=O)N1CCC[P+](c1ccccc1)(c1ccccc1)c1ccccc1`, the T/C was 102 % of control (dose: 1.56 mg/kg/injection, schedule: Q01DX009 (ip), vehicle: Klucel (hydroxypropylcellulose) (HPC)) and 151 % of control under setting [1].

Turning to `O=[N+]([O-])c1ccc(S(=O)(=O)Oc2ccccc2)cc1`, the T/C by setting is: (dose: 50.0 mg/kg/injection, schedule: Q01DX009 (ip), vehicle: saline with Tween-80) 105 % of control; (dose: 50.0 mg/kg/injection, schedule: Q04DX003 (ip), vehicle: Klucel (hydroxypropylcellulose) (HPC)) 100 % of control; (dose: 100.0 mg/kg/injection, schedule: Q01DX009 (ip), vehicle: saline with Tween-80) 100 % of control; under setting [2], 105 % of control; (dose: 200.0 mg/kg/injection, schedule: Q01DX009 (ip), vehicle: saline with Tween-80) 105 % of control; under setting [3], 105 % of control.

On to `NC(C/[N+]([O-])=N/O)C(=O)O` (configuration not stated), for which the T/C (dose: 15.6 mg/kg/injection, schedule: Q04DX003 (ip), vehicle: saline) was 118 % of control; the T/C (dose: 15.6 mg/kg/injection, schedule: Q04DX003 (ip), vehicle: water) was 118 % of control; the T/C (dose: 25.0 mg/kg/injection, schedule: Q01DX010 (ip), vehicle: other) is 150 % of control; the T/C (dose: 25.0 mg/kg/injection, schedule: Q01DX010 (ip), vehicle: saline) was 122 % of control; the T/C (dose: 31.3 mg/kg/injection, schedule: Q04DX003 (ip), vehicle: saline) was 122 % of control; the T/C (dose: 50.0 mg/kg/injection, schedule: Q01DX010 (ip), vehicle: other) is 150 % of control. In addition, the T/C is, setting by setting: (dose: 100.0 mg/kg/injection, schedule: Q01DX010 (ip), vehicle: other) 165 % of control; (dose: 125.0 mg/kg/injection, schedule: Q04DX003 (ip), vehicle: water) 168 % of control; (dose: 173.0 mg/kg/injection, schedule: Q04DX003 (ip), vehicle: sodium bicarbonate) 161 % of control and 171 % of control; (dose: 200.0 mg/kg/injection, schedule: Q01DX010 (ip), vehicle: saline) 100 % of control; (dose: 250.0 mg/kg/injection, schedule: Q04DX003 (ip), vehicle: saline) 172 % of control; (dose: 250.0 mg/kg/injection, schedule: Q04DX003 (ip), vehicle: water) 181 % of control. The T/C was 161 % of control and 172 % of control (dose: 288.0 mg/kg/injection, schedule: Q04DX003 (ip), vehicle: sodium bicarbonate); 190 % of control and 192 % of control (dose: 480.0 mg/kg/injection, schedule: Q04DX003 (ip), vehicle: sodium bicarbonate); 181 % of control (dose: 500.0 mg/kg/injection, schedule: Q04DX003 (ip), vehicle: saline); 177 % of control (dose: 500.0 mg/kg/injection, schedule: Q04DX003 (ip), vehicle: water); 116 % of control (dose: 800.0 mg/kg/injection, schedule: Q04DX003 (ip), vehicle: sodium bicarbonate).

For `Cc1ccc(OC/C=C/CSc2ccc(C)cc2)cc1`, the T/C under setting [2] is 108 % of control; the T/C under setting [3] was 108 % of control; the T/C (dose: 400.0 mg/kg/injection, schedule: Q04DX003 (ip), vehicle: Klucel (hydroxypropylcellulose) (HPC)) is 108 % of control.
